Laboratory results as given in patent US20260250627A1, “A new bacterial strain Weissella cibaria, a composition comprising it, a pharmaceutical composition for use, a dietary supplement, a probiotic preparation, a bacterial starter culture for making bread, sourdough, bread, a method for the production of bread, a method for microbiological production …” (INSTYTUT BIOCHEMII I BIOFIZVKI PAN, priority 2023, published 2026).
≈ marks a conversion by molar mass, not a printed value. Read-outs that look alike come from different tables or passages of the source.

Tested on: IBB3394 strain (KKP 2094p)
Test: Antibiotic sensitivity test with E-test strips (Example 11)
Format: cell-based, Weissella cibaria
Conditions: 48 h; for MIC: Weissella cibaria, read-out: Minimum inhibitory concentration (MIC) IBB3394
Experimental: The safety assessment of the selected strain of Weissella sp. IBB3394 was carried out by testing antibiotic susceptibility using E-test strips (bioMerieux) in accordance with the manufacturer's recommendations. The tested strain was seeded on IST-MRS solid medium and incubated at 30° C. in aerobic conditions. […] Antibiotic strips were placed on the surface of the plate and the plates were incubated at 30° C. for 48 h in aerobic conditions.

[1] = E-test strips, IST-MRS, 30° C., aerobic

Molecule	MIC [1] [µg/mL]	also measured
O=C(N[C@H](CO)[C@H](O)c1ccc([N+](=O)[O-])cc1)C(Cl)Cl [CL, chloramphenicol]	2 to 3 (≈ 6.19 to 9.28 µM)	–
CCC[C@@H]1C[C@@H](C(=O)N[C@@H]([C@H]2O[C@H](SC)[C@H](O)[C@@H](O)[C@H]2O)[C@H](C)Cl)N(C)C1 [CM, clindamycin]	0.016 (≈ 0.0376 µM)	–
CC[C@H]1OC(=O)[C@H](C)[C@@H](O[C@H]2C[C@@](C)(OC)[C@@H](O)[C@H](C)O2)[C@H](C)[C@@H](O[C@@H]2O[C@H](C)C[C@H](N(C)C)[C@H]2O)[C@](C)(O)C[C@@H](C)C(=O)[C@H](C)[C@@H](O)[C@]1(C)O [EM, erythromycin]	0.094 (≈ 0.128 µM)	–
CN(C)[C@@H]1C(O)=C(C(N)=O)C(=O)[C@@]2(O)C(O)=C3C(=O)c4c(O)cccc4[C@@](C)(O)[C@H]3C[C@@H]12 [TC, tetracycline]	2 (≈ 4.5 µM)	–
[H]/N=C(/N)N[C@H]1[C@H](O)[C@@H](O)[C@H](O[C@@H]2O[C@@H](C)[C@](O)(C=O)[C@H]2O[C@@H]2O[C@@H](CO)[C@H](O)[C@@H](O)[C@@H]2NC)[C@@H](N/C(N)=N\[H])[C@@H]1O [SM, streptomycin]	8 (≈ 13.8 µM)	–
CN[C@H](CC(C)C)C(=O)N[C@H]1C(=O)N[C@@H](CC(N)=O)C(=O)N[C@H]2C(=O)N[C@H]3C(=O)N[C@H](C(=O)N[C@H](C(=O)O)c4cc(O)cc(O)c4-c4cc3ccc4O)[C@H](O)c3ccc(c(Cl)c3)Oc3cc2cc(c3O[C@@H]2O[C@H](CO)[C@@H](O)[C@H](O)[C@H]2O[C@H]2C[C@](C)(N)[C@H](O)[C@H](C)O2)Oc2ccc(cc2Cl)[C@H]1O [VA, vancomycin]	–	MIC: > 256 µg/mL
gentamicin [GM]	–	Minimum inhibitory concentration (MIC) IBB3394 [1]: 4 µg/mL
CC1(C)S[C@@H]2[C@H](NC(=O)[C@H](N)c3ccccc3)C(=O)N2[C@H]1C(=O)O [AM, ampicillin]	0.38 to 0.5 (≈ 1.09 to 1.43 µM)	–
NC[C@H]1O[C@H](O[C@H]2[C@H](O)[C@@H](O[C@H]3O[C@H](CO)[C@@H](O)[C@H](N)[C@H]3O)[C@H](N)C[C@@H]2N)[C@H](O)[C@@H](O)[C@@H]1O [KM, kanamycin]	16 (≈ 33 µM)	–
